Reference: ChEMBL document CHEMBL4673225, “Highly Selective PTK2 Proteolysis Targeting Chimeras to Probe Focal Adhesion Kinase Scaffolding Functions” (J Med Chem, 2019)
Calls of active or inactive are those of the source. The rule behind the calls is not given here.

Columns and labels:
HuCCT-1 [1] = assay: cells; conditions: Homo sapiens, HuCCT-1, 144 h, read-out: pIC50 (converted)
Description: Antiproliferative activity against human HuCCT-1 cells incubated for 6 days by CellTiter-Glo luminescent cell viability assay

[2] = Permeability in human Caco-2 cells; type: ADME, cell-based
C32 = assay: Antiproliferative activity against C32 in human […] cells at 3 uM incubated for 21 days; type: functional, cell-based; conditions: time 21.0 day
HSC-3 = assay: Antiproliferative activity against HSC-3 in human […] cells at 3 uM incubated for 21 days; type: functional, cell-based; conditions: time 21.0 day
CFPAC-1 = assay: Antiproliferative activity against C32 in human CFPAC-1 cells at 3 uM incubated for 21 day; type: functional, cell-based
HepG2 [3] = assay: Antiproliferative activity against human HepG2 cells incubated for 7 to 14 days by methylene blue dye based anchorage independent growth assay; type: functional, cell-based; conditions: time 7-14 day
Huh-7 [4] = assay: Antiproliferative activity against human Huh-7 cells incubated for 7 to 14 days by methylene blue dye based anchorage independent growth assay; type: functional, cell-based; conditions: time 7-14 day
HuH-1 = assay: Antiproliferative activity against human HuH-1 cells incubated for 7 to 14 days by methylene blue dye based anchorage independent growth assay; type: functional, cell-based; conditions: time 7-14 day
[5] = target: T1, Protein cereblon/Focal adhesion kinase 1 (Homo sapiens, UniProt Q05397+Q96SW2); assay: Protac activity at CRBN/PTK2 in human HLF1 cells assessed as induction of PTK2 degradation incubated for 18 hrs by protein capillary electrophoresis method; type: cell-based
Target sequence in this assay (Q05397 whole entry): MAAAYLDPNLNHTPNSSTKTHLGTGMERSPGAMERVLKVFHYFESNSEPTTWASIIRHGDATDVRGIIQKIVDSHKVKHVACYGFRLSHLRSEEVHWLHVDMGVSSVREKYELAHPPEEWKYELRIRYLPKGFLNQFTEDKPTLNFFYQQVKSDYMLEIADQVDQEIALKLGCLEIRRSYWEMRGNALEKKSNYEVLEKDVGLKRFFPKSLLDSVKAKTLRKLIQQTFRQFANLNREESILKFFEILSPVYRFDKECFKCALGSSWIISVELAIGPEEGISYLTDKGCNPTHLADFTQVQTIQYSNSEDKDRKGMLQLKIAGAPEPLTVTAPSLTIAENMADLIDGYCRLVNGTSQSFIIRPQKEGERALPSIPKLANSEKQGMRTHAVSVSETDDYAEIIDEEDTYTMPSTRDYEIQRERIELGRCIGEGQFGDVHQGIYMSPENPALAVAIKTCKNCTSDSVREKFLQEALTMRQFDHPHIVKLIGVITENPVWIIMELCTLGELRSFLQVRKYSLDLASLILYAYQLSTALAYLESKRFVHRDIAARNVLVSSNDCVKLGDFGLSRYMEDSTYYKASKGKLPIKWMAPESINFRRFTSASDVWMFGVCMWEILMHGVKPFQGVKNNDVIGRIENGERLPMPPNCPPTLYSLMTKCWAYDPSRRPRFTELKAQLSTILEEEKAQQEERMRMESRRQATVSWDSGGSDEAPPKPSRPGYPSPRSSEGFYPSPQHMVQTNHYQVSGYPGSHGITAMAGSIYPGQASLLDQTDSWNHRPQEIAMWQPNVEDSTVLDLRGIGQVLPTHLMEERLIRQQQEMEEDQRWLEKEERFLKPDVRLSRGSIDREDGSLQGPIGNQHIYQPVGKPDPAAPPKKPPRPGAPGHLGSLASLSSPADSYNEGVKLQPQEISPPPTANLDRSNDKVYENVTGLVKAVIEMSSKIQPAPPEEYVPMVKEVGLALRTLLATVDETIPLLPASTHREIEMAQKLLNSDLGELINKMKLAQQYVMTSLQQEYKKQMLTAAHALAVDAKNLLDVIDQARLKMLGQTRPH
Target sequence in this assay (Q96SW2 whole entry): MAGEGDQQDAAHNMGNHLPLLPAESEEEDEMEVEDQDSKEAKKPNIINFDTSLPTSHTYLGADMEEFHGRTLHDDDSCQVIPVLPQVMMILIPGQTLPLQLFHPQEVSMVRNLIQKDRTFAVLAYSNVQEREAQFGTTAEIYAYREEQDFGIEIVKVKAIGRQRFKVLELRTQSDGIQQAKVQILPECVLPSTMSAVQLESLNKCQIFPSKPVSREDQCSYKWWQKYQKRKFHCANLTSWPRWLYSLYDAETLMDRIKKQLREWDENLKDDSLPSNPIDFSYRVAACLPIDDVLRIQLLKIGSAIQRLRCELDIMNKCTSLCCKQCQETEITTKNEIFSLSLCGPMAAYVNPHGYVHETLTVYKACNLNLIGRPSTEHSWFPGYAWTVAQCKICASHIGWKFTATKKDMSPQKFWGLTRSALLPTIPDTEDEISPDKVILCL

cells [6] = conditions: Homo sapiens, Hep3B, 144 h, read-out: pIC50 (converted)
Description: Antiproliferative activity against human Hep3B2.1-7 cells incubated for 6 days by CellTiter-Glo luminescent cell viability assay

Focal adhesion kinase 1 = Focal adhesion kinase 1 (Homo sapiens, UniProt Q05397); assay: Inhibition of human PTK2 (411-689 residues) expressed in Hi-5 cells
SNU-423 [7] = assay: cells; conditions: Homo sapiens, SNU-423, 144 h, read-out: pIC50 (converted)
Description: Antiproliferative activity against human SNU-423 cells incubated for 6 days by CellTiter-Glo luminescent cell viability assay

SK-HEP1 [8] = assay: Antiproliferative activity against human SK-HEP1 cells incubated for 7 to 14 days by methylene blue dye based anchorage independent growth assay; type: functional, cell-based; conditions: time 7-14 day
HLE [9] = assay: cells; conditions: Homo sapiens, 144 h, read-out: pIC50 (converted)
Description: Antiproliferative activity against human HLE cells incubated for 6 days by CellTiter-Glo luminescent cell viability assay

SK-HEP1 [10] = assay: cells; conditions: Homo sapiens, SK-HEP1, 144 h, read-out: pIC50 (converted)
Description: Antiproliferative activity against human SK-HEP1 cells incubated for 6 days by CellTiter-Glo luminescent cell viability assay

SNU-398 [11] = assay: cells; conditions: Homo sapiens, SNU-398, 144 h, read-out: pIC50 (converted)
Description: Antiproliferative activity against human SNU-398 cells incubated for 6 days by CellTiter-Glo luminescent cell viability assay

[12] = target: T1, Protein cereblon/Focal adhesion kinase 1; assay: Protac activity at CRBN/PTK2 in human HepG2 cells assessed as induction of PTK2 degradation incubated for 18 hrs by protein capillary electrophoresis method relative to control; type: cell-based
Target sequence in this assay (Q05397 2-1052 limits assumed): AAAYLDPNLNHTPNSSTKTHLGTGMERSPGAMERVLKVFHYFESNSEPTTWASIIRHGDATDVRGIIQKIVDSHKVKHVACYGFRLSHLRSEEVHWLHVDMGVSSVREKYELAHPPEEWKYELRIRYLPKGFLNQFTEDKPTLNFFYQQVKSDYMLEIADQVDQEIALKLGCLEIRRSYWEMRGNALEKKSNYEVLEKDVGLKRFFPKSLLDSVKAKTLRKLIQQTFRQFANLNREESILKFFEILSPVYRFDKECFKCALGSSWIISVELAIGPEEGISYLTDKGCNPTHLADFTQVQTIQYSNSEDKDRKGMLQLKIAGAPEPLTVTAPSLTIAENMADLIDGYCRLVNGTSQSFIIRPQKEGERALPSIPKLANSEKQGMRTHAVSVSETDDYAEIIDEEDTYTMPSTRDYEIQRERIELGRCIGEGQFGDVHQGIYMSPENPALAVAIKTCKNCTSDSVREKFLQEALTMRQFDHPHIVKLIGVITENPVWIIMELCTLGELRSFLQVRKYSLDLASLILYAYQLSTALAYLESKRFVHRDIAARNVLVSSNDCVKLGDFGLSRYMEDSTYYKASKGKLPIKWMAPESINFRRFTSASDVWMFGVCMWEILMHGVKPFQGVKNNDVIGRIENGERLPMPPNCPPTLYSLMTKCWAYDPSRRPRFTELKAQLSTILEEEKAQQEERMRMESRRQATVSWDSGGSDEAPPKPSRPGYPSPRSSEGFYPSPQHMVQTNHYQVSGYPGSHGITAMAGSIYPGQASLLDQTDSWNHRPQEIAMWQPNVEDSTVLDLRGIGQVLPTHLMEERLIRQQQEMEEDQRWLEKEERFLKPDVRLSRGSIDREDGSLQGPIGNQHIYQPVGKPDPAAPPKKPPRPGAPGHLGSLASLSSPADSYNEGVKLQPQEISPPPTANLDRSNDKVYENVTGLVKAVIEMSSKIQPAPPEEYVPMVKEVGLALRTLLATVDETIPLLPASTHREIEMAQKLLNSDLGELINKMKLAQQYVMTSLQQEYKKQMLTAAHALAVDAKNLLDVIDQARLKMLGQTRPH
Target sequence in this assay (Q96SW2 whole entry partner): as the sequence (Q96SW2 whole entry) above

[13] = Fraction unbound in 10% FCS; type: ADME, cell-free, Bos taurus; conditions: cattle, 10% fetal calf serum (FCS)
SNU-387 [14] = assay: Antiproliferative activity against human SNU-387 cells incubated for 7 to 14 days by methylene blue dye based anchorage independent growth assay; type: functional, cell-based; conditions: time 7-14 day
Huh-7 [15] = assay: cells; conditions: Homo sapiens, Huh-7, 144 h, read-out: pIC50 (converted)
Description: Antiproliferative activity against human Huh-7 cells incubated for 6 days by CellTiter-Glo luminescent cell viability assay

[16] = target: T1, Protein cereblon/Focal adhesion kinase 1; assay: Protac activity at CRBN/PTK2 in human HuH-1 cells assessed as induction of PTK2 degradation incubated for 18 hrs by protein capillary electrophoresis method relative to control; type: cell-based
Target sequence in this assay (Q05397 2-1052 limits assumed): as the sequence (Q05397 2-1052 limits assumed) above
Target sequence in this assay (Q96SW2 whole entry partner): as the sequence (Q96SW2 whole entry) above

cells [17] = conditions: Homo sapiens, HLF1, 144 h, read-out: pIC50 (converted)
Description: Antiproliferative activity against human HLF1 cells incubated for 6 days by CellTiter-Glo luminescent cell viability assay

[18] = target: Retinal rod rhodopsin-sensitive cGMP 3',5'-cyclic phosphodiesterase subunit delta (Homo sapiens) (UniProt O43924); assay: Induction of PDE6D degradation in human A549 cells at 100 nM to 10000 nM incubated for 18 hrs by immunoblot analysis based protein capillary electrophoresis; type: cell-based
A549 [19] = assay: Antiproliferative activity against C32 in human A549 cells at 3 uM incubated for 21 day; type: functional, cell-based
[20] = target: T1, Protein cereblon/Focal adhesion kinase 1; assay: Protac activity at CRBN/PTK2 in human SNU-398 cells assessed as induction of PTK2 degradation incubated for 18 hrs by protein capillary electrophoresis method; type: cell-based
Target sequence in this assay (Q05397 whole entry): as the sequence (Q05397 whole entry) above
Target sequence in this assay (Q96SW2 whole entry): as the sequence (Q96SW2 whole entry) above

[21] = Stability in EMEM cell assay buffer containing 10% FCS; type: physicochemical; conditions: cattle
cells [22] = conditions: Homo sapiens, HuH-1, 144 h, read-out: pIC50 (converted)
Description: Antiproliferative activity against human HuH-1 cells incubated for 6 days by CellTiter-Glo luminescent cell viability assay

SNU-398 [23] = assay: Antiproliferative activity against human SNU-398 cells incubated for 7 to 14 days by methylene blue dye based anchorage independent growth assay; type: functional, cell-based; conditions: time 7-14 day
HuCCT-1 [24] = assay: Antiproliferative activity against human HuCCT-1 cells incubated for 7 to 14 days by methylene blue dye based anchorage independent growth assay; type: functional, cell-based; conditions: time 7-14 day
SNU-423 [25] = assay: Antiproliferative activity against human SNU-423 cells incubated for 7 to 14 days by methylene blue dye based anchorage independent growth assay; type: functional, cell-based; conditions: time 7-14 day
HepG2 [26] = assay: cells; conditions: Homo sapiens, HepG2, 144 h, read-out: pIC50 (converted)
Description: Antiproliferative activity against human HepG2 cells incubated for 6 days by CellTiter-Glo luminescent cell viability assay

A549 [27] = assay: Induction of general kinase degradation in human A549 cells at 3 uM incubated for 18 hrs by mass spectrometry based total proteome analysis; type: functional, cell-based
HLF1 = assay: Antiproliferative activity against human HLF1 cells incubated for 7 to 14 days by methylene blue dye based anchorage independent growth assay; type: functional, cell-based; conditions: time 7-14 day
HLE [28] = assay: Antiproliferative activity against human HLE cells incubated for 7 to 14 days by methylene blue dye based anchorage independent growth assay; type: functional, cell-based; conditions: time 7-14 day
SNU-387 [29] = assay: cells; conditions: Homo sapiens, SNU-387, 144 h, read-out: pIC50 (converted)
Description: Antiproliferative activity against human SNU-387 cells incubated for 6 days by CellTiter-Glo luminescent cell viability assay

Hep3B = assay: Antiproliferative activity against human Hep3B2.1-7 cells incubated for 7 to 14 days by methylene blue dye based anchorage independent growth assay; type: functional, cell-based; conditions: time 7-14 day
[30] = target: Retinal rod rhodopsin-sensitive cGMP 3',5'-cyclic phosphodiesterase subunit delta (Homo sapiens) (UniProt O43924); assay: Induction of PDE6D degradation in human A549 cells at 3 uM incubated for 18 hrs by mass spectrometry based total proteome analysis; type: cell-based
[31] = target: T1, Protein cereblon/Focal adhesion kinase 1; assay: Protac activity at CRBN/PTK2 in human HuCCT-1 cells assessed as induction of PTK2 degradation incubated for 18 hrs by protein capillary electrophoresis method; type: cell-based
Target sequence in this assay (Q05397 whole entry): as the sequence (Q05397 whole entry) above
Target sequence in this assay (Q96SW2 whole entry): as the sequence (Q96SW2 whole entry) above

[32] = target: T2, von Hippel-Lindau disease tumor suppressor/Focal adhesion kinase 1 (Homo sapiens, UniProt Q05397+P40337); assay: Protac activity at VHL/PTK2 in human Hep3B2.1-7 cells assessed as induction of PTK2 degradation incubated for 18 hrs by protein capillary electrophoresis method; type: cell-based; conditions: hep3b
Target sequence in this assay (Q05397 whole entry): as the sequence (Q05397 whole entry) above
Target sequence in this assay (P40337 whole entry): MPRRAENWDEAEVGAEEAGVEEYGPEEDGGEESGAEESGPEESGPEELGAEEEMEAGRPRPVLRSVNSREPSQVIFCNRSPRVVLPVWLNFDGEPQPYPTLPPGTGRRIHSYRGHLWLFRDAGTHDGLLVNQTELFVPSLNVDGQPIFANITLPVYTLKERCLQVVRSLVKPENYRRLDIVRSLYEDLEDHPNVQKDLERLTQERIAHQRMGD

[33] = target: T2, von Hippel-Lindau disease tumor suppressor/Focal adhesion kinase 1; assay: Protac activity at VHL/PTK2 in human SNU-423 cells assessed as induction of PTK2 degradation incubated for 18 hrs by protein capillary electrophoresis method; type: cell-based
Target sequence in this assay (Q05397 whole entry): as the sequence (Q05397 whole entry) above
Target sequence in this assay (P40337 whole entry): as the sequence (P40337 whole entry) above

[34] = target: T2, von Hippel-Lindau disease tumor suppressor/Focal adhesion kinase 1; assay: Protac activity at VHL/PTK2 in human HLF1 cells assessed as induction of PTK2 degradation incubated for 18 hrs by protein capillary electrophoresis method relative to control; type: cell-based
Target sequence in this assay (P40337 whole entry partner): as the sequence (P40337 whole entry) above
Target sequence in this assay (Q05397 2-1052 limits assumed): as the sequence (Q05397 2-1052 limits assumed) above

[35] = target: T2, von Hippel-Lindau disease tumor suppressor/Focal adhesion kinase 1; assay: Protac activity at VHL/PTK2 in human SK-HEP1 cells assessed as induction of PTK2 degradation incubated for 18 hrs by protein capillary electrophoresis method; type: cell-based
Target sequence in this assay (Q05397 whole entry): as the sequence (Q05397 whole entry) above
Target sequence in this assay (P40337 whole entry): as the sequence (P40337 whole entry) above

[36] = target: T2, von Hippel-Lindau disease tumor suppressor/Focal adhesion kinase 1; assay: Protac activity at VHL/PTK2 in human A549 cells assessed as induction of PTK2 degradation incubated for 18 hrs by protein capillary electrophoresis method; type: cell-based
Target sequence in this assay (Q05397 whole entry): as the sequence (Q05397 whole entry) above
Target sequence in this assay (P40337 whole entry): as the sequence (P40337 whole entry) above

Chain of Retinal rod rhodopsin-sensitive cGMP 3',5'-cyclic phosphodiesterase subunit delta (Homo sapiens) (O43924 whole entry): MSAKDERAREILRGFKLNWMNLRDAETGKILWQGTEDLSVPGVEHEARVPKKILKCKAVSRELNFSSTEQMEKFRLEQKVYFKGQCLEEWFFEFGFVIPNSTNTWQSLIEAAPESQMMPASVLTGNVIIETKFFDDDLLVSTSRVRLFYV
Chain of Focal adhesion kinase 1 (Q05397 whole entry, the tested form may be a part): as the sequence (Q05397 whole entry) above

| SMILES | IC50 (HuCCT-1 [1]) [µM] | permeability [2] | Activity (C32) | Activity (HSC-3) | Activity (CFPAC-1) | Activity (HepG2 [3]) | Activity (Huh-7 [4]) | Activity (HuH-1) | IC50 (cells [6]) [µM] | IC50 (Focal adhesion kinase 1) [nM] | IC50 (SNU-423 [7]) [µM] | Activity (SK-HEP1 [8]) | IC50 (HLE [9]) [µM] | IC50 (SK-HEP1 [10]) [µM] | IC50 (SNU-398 [11]) [µM] | fraction unbound [13] | Activity (SNU-387 [14]) | IC50 (Huh-7 [15]) [µM] | IC50 (cells [17]) [µM] | Activity [18] | also measured |
| --- | --- | --- | --- | --- | --- | --- | --- | --- | --- | --- | --- | --- | --- | --- | --- | --- | --- | --- | --- | --- | --- |
| COc1cc(C(=O)NCCOCCOCCOCCC(=O)Nc2cccc3c2C(=O)N(C2CCC(=O)NC2=O)C3=O)ccc1Nc1ncc(C(F)(F)F)c(Oc2cccc3c2C(=O)CC3)n1 (stereo unspecified) | > 25.1 | Impermeable | inactive | inactive | inactive | inactive | inactive | inactive | 25.1 | 18 | 20 | inactive | > 25.1 | 1.58 | > 25.1 | 0.04 | inactive | > 25.1 | > 25.1 | inactive | pDC50 [5]: 6.4; Emax [12]: 89%; Emax [16]: 50%; Activity (A549 [19]): inactive; pDC50 [20]: 8.5; Stabilty [21]: Unstable; IC50 (cells [22]): 25.1 µM; Activity (SNU-398 [23]): inactive; Activity (HuCCT-1 [24]): inactive; Activity (SNU-423 [25]): inactive; IC50 (HepG2 [26]): > 25.1 µM; Activity (A549 [27]): inactive; Activity (HLF1): inactive; Activity (HLE [28]): inactive; IC50 (SNU-387 [29]): > 25.1 µM; Activity (Hep3B): inactive; Activity [30]: inactive; pDC50 [31]: 7.9 |
| COc1cc(C(=O)NCCOCCOCCOCC(=O)N[C@H](C(=O)N2C[C@H](O)C[C@H]2C(=O)NCc2ccc(-c3scnc3C)cc2)C(C)(C)C)ccc1Nc1ncc(C(F)(F)F)c(Oc2cccc3c2C(=O)CC3)n1 | 6.31 | Impermeable | inactive | inactive | inactive | inactive | inactive | inactive | 6.31 | 19 | 6.31 | inactive | 10 | 7.94 | 7.94 | 0.113 | inactive | 3.98 | > 25.1 | Active | pDC50 [32]: 6.2; pDC50 [33]: 7.1; Activity (A549 [19]): inactive; Emax [34]: 66%; pDC50 [35]: 6.9; Stabilty [21]: Stable; IC50 (cells [22]): 20 µM; Activity (SNU-398 [23]): inactive; Activity (HuCCT-1 [24]): inactive; Activity (SNU-423 [25]): inactive; IC50 (HepG2 [26]): > 25.1 µM; Activity (A549 [27]): inactive; Activity (HLF1): inactive; Activity (HLE [28]): inactive; IC50 (SNU-387 [29]): 5.01 µM; Activity (Hep3B): inactive; Activity [30]: Active; pDC50 [36]: 6.7 |
